Results: patent US20260248918A1, “COMPOSITIONS AND METHODS OF SUPPRESSING AVERSIVENESS OF PHARMACEUTICALS AND INGESTIBLE MATERIALS” (Monell Chemical Senses Center, priority 2019, published 2026)
Entries after “also recorded” stand apart in the source; their conditions may differ.

How the values were obtained:
[1] = molecular target: T1, TAS2R39 (Homo sapiens, UniProt P59534); test: Blocking of TAS2R39 activity (HEK/TAS2R39) stimulated by Piperaquine or Tenofovir; assay type: cell-based; parameters: expressed in transfected cells; host or cells: HEK; conditions: 0.1 mM blocker
T1 sequence (P59534 1-338): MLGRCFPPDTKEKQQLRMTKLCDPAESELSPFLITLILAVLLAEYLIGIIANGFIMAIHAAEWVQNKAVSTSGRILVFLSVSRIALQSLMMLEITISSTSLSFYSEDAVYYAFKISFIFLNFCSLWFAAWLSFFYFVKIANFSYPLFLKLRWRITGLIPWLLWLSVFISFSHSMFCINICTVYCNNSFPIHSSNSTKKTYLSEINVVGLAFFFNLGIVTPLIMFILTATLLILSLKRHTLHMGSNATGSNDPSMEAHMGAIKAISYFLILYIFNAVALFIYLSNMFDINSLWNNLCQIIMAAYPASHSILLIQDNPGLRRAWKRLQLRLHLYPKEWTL
Method: FIG. 5A is a bar graph showing that the blocker 6-methylflavone (indicated by the arrow number 2) blocks the activity of taste receptor TAS2R39 to Piperaquine. Other blockers are unidentified compounds identified by the numbers following the concentrations under the X axis. Five candidates from the HTS screen blocked the activity of TAS2R39 to Piperaquine.
FIG. 5B is a graph plotting the activity of taste receptor HEK/TAS2R39 in the presence of 0.5 mM Piperaquine (bold black line); the combination of 0.5 mM Piperaquine and 0.1 mM of 6-methylflavone (light gray line), and a control with 0.1 mM of the blocker 6-methylflavone (dotted line).
Other blockers are identified by the numbers following the concentrations under the X axis.
FIG. 7B is a graph plotting the activity of taste receptor TAS2R39 in the presence of 1 mM Tenofovir (bold black line); the combination of 1 mM Tenovir and 0.1 mM of 6-methylflavone (light gray line), and a control with 0.1 mM of the blocker 6-methylflavone (dotted line).

[2] = molecular target: T2, TAS2R1 (Homo sapiens, UniProt Q9NYW7); test: Blocking of TAS2R1 response to the APIs; assay type: cell-based; conditions: data not shown
T2 sequence (Q9NYW7 1-299): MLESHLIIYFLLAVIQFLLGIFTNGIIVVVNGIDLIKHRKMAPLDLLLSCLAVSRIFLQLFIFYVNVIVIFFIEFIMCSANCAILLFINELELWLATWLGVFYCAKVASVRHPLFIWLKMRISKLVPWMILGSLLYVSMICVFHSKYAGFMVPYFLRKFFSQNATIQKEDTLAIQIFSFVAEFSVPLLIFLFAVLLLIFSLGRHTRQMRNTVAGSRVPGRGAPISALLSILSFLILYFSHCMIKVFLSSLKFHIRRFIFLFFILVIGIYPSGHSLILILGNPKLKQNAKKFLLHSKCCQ

Inhibition of TAS2R1 ([2]; FIG. 5A legend (Piperaquine)): did not inhibit
Inhibition of the response of TAS2R1 to TAF ([2]; FIG. 7B legend): did not inhibit
SMILES: Cc1ccc2oc(-c3ccccc3)cc(=O)c2c1 [6-methylflavone]
Inhibition of TAS2R39 activity to Piperaquine ([1]; 0.5 mM Piperaquine, FIG. 5A/5B): powerful antagonist; also recorded: strong inhibition
Inhibition of TAS2R39 activity in response to Tenofovir (TAF) ([1]; 1 mM Tenofovir, FIG. 7A/7B): powerful antagonist; also recorded: completely inhibited
